What was measured:
[1] = Average particle size of nucleic acid lipid particle (NICOMP 380ZLS); format: physicochemical; conditions: ± deviation
Procedure: The particle size of the liposome was measured using Zeta Potential/Particle Sizer NICOMP™ 380ZLS (Particle Sizing Systems, LLC). In the tables, the average particle size is indicated by a volume-average particle size, and the numeric value following ±represents a deviation.

[2] = Rate of encapsulation of polynucleotide/mRNA (Quant-iT RiboGreen, with and without Triton X-100); format: physicochemical
Procedure: The rate of encapsulation of the double-stranded polynucleotide was measured using Quant-iT RiboGreen RNA Assay kit (Invitrogen Corp.) according to the attached document.
(§1) Specifically, the double-stranded polynucleotide in the nucleic acid lipid particle dispersion was quantified in the presence and absence of a 0.015% Triton X-100 detergent, and the rate of encapsulation was calculated according to the following expression: {[Amount of the double-stranded polynucleotide in the presence of the detergent]−[Amount of the double-stranded polynucleotide in the absence of the detergent]}/[Amount of the double-stranded polynucleotide in the presence of the detergent]}×100(%) (3) Ratio of Double-Stranded Polynucleotide to Lipid
The rate of encapsulation of the mRNA was measured using Quant-iT RiboGreen RNA Assay kit (Invitrogen Corp.) according to the attached document.
as §1, with “mRNA” for “double-stranded polynucleotide”, “mRNA” for “Double-Stranded Polynucleotide”

[3] = Ratio of polynucleotide/mRNA to lipid (wt/wt); format: physicochemical
Procedure: The nucleic acid lipid particle dispersion was mixed with acetonitrile and chloroform at a ratio of 1:1:1 and centrifuged at 15,000 rpm for 2 minutes. Then, the aqueous layer obtained as an upper layer was recovered, followed by the extraction of the double-stranded polynucleotide. The amount of the double-stranded polynucleotide in the sample was measured by ion-exchange chromatography (system: Agilent 1100 series, column: TSKgel DEAE-2SW (2.6×150 mm) (Tosoh Corp), buffer A: 20% acetonitrile, buffer B: 20% acetonitrile and 1.6 M ammonium formate, gradient (B %): 30-55% (0-20 min), flow rate: 1 mL/min, temperature: 40° C., detection: 260 nm).
The amount of the phospholipid in the nucleic acid lipid particle dispersion was measured using Phospholipid C-Test Wako (Wako Pure Chemical Industries Ltd.) according to the attached document. Specifically, the phospholipid in the sample was quantified in the presence of a 1% Triton X-100 detergent.
(§2) The amounts of cholesterol and LP in the nucleic acid lipid particle dispersion were measured by reverse-phase chromatography (system: Agilent 1100 series, column: Chromolith Performance RP-18 endcapped 100-3 monolithic HPLC-column (Merck), buffer A: 0.01% trifluoroacetic acid, buffer B: 0.01% trifluoroacetic acid and methanol, gradient (B %): 87-92% (0-10 min), flow rate: 2 mL/min, temperature: 50° C., detection: 205 nm).
(§3) The total amount of lipids was calculated from the amount of the phospholipid and the compositional ratio of lipid components constituting the liposome, and the ratio of the polynucleotide to the lipid was calculated from the aforementioned amount of the polynucleotide and the total amount of lipids according to the following expression: [Double-stranded polynucleotide concentration]/[Total lipid concentration] (wt/wt)
as §3, with “phospholipid, the amount of cholesterol, and the amount of LP,” for “phospholipid”
The amount of the double-stranded polynucleotide in a sample from the nucleic acid lipid particle dispersion was measured in the presence of a 5% Triton X-100 detergent by ion-exchange chromatography (system: Agilent 1100 series, column: DNAPac PA200 (4×250 mm) (Thermo Fisher Scientific K.K.), buffer A: 10 mM Tris, 25 mM sodium perchlorate, and 20% ethanol, pH 7.0, buffer B: 10 mM Tris, 250 mM sodium perchlorate, and 20% ethanol, pH 7.0, gradient (B %): 20-70% (0-15 min), flow rate: 0.5 mL/min, temperature: 40° C., detection: 260 nm).
as §2, with “82-92%” for “87-92%”
The total amount of lipids was calculated from the amount of the phospholipid, the amount of cholesterol, and the amount of LP, and the compositional ratio of lipid components constituting the liposome, and the ratio of the mRNA to the lipid was calculated from the “amount of the mRNA in the presence of the detergent” of the preceding paragraph (2) according to the following expression: [mRNA concentration in the presence of the detergent]/[Total lipid concentration] (wt/wt)

[4] = system: human PLK-1 gene; experiment: Test Example 10: PLK-1 expression inhibition in Hep3B tumor of nude mice; format: in vivo; conditions: nude mice with subcutaneous Hep3B tumor, i.v. 1 mg/kg and 3 mg/kg, tumor collected the day after administration; particles of Example 57
Procedure: After acclimatization and raising of each nude mouse (CAnN.Cg-Foxn1[nu]/CrlCrlj[Foxn1nu/Foxn1nu]) for 8 days, cultured human Hep3B cells (1×10^7 cells/mouse) were subcutaneously transplanted to the right lateral region of the mouse. 19 days after the tumor transplantation, the mice were grouped with the tumor volume as an index, and, on the next day, the nucleic acid lipid particle-containing dispersion prepared in Example 57 was intravenously administered (administered at doses of 1 mg/kg and 3 mg/kg) to the tail of each mouse. PBS was administered to a control group. On the day after the administration of the nucleic acid lipid particle, a tumor mass was collected from the cancer-bearing mouse, and a nucleic acid was extracted using QIAzol Lysis Reagent (manufactured by Qiagen N.V.) and chloroform. Then, total RNA was purified using QIAGNE RNeasy Plus Mini kit (manufactured by Qiagen N.V.) according to the attached protocol.
16 μL of the purified RNA and 4 μL of SuperScript VILO Master mix (Life Technologies, Inc.) were mixed and used in RT reaction under conditions given below.
RT reaction: 25° C. for 10 min • 42° C. for 60 min • 85° C. for 5 min. […]
The quantitative analysis was conducted by the ΔΔCt method. A value (ΔΔCt) was determined by subtracting ΔCt of the PBS administration group from the difference in Ct value (ΔCt) between human PLK-1 and human GAPDH in the administration group of each nucleic acid lipid particle, and a relative value (RQ) to the PBS administration group, RQmax, and RQmin were calculated according to the following expressions: RQ=2^−ΔΔCt RQmax=2^−95% CI of ΔΔCt (95% CI of ΔΔCt: the maximum value of 95% confidence interval of ΔΔCt) RQmin=2^−95% CI of ΔΔCt (95% CI of ΔΔCt: the minimum value of 95% confidence interval of ΔΔCt)
In the diagram, error bars were calculated according to the following expression: +error bars:RQmax−RQ,−error bars:RQ−RQmin)

[5] = system: Factor VII protein; experiment: Test Example 9: Factor VII (FVII) protein measurement in mouse plasma, 0.1 mg/kg i.v.; format: in vivo; conditions: mice, i.v. 0.1 mg/kg; for FVII inhibitory activity (in words): 1 day and 6 days after administration; for Relative amount of FVII, 1 day later: plasma 1 day after administration; for Relative amount of FVII, 1 day later / Relative amount of FVII, 6 days later: PBS = 100%; for Relative amount of FVII, 6 days later: plasma 6 days after administration
Procedure: The Factor VII protein was measured according to a method described in Nature Biotechnology (2010) 28, 172-176. C57BL6/J mice (male, 9 weeks old) were randomly grouped (n=4). The nucleic acid lipid particle dispersion prepared in Example 33 was intravenously injected at a dose of 0.3 mg/kg to the tail of each mouse. One day after the administration, approximately 50 μL of blood was collected from the tail vein, and plasma was obtained. The amount of the Factor VII protein in the obtained plasma was measured using Biophen FVII assay kit (manufactured by Aniara Corp.) according to the attached protocol.
When the amount of FVII of respective plasma samples collected in equal amounts from individuals in a PBS administration group was defined as 100%, the relative ratio (%) of the amount of FVII in a plasma sample of each individual was used as a measurement value (A). An average value (B) was determined from the respective measurement values of the individuals in the PBS administration group. The relative ratio of the measurement value (A) of each individual was determined from the expression: A/B×100(%).
By the same procedures as in Test Example 7, the strength of Factor VII protein expression inhibitory activity was compared among nucleic acid lipid particles each prepared using a novel lipid. The prepared nucleic acid lipid particle dispersion was intravenously injected at a dose of 0.1 mg/kg to the tail of each mouse. One day and 6 days after the administration, approximately 50 μL of blood was collected from the tail vein, and plasma was obtained.

[6] = Example 57: PLK1424-2/A siRNA, DPPC:Chol:LP:PEG-C-DSA=7:33.5:57:2.5, N/P 3
[7] = Example 56: siFVII, DSPC:Chol:LP:PEG-C-DMA=10:48:40:2, N/P 3

Row | Structure (SMILES) | Average particle size [1, 6] | Rate of polynucleotide encapsulation [2, 6] | Ratio of polynucleotide to lipid siRNA/lipid [3, 6] | Average particle size [1, 7] | Rate of polynucleotide encapsulation [2, 7] | Ratio of polynucleotide to lipid siRNA/lipid [3, 7] | PLK-1 expression inhibitory activity in tumor (in words, FIG. 5) [4] | FVII inhibitory activity (in words) [5] | Relative amount of FVII, 1 day later [5] | Relative amount of FVII, 6 days later [5]
1 | CCCCCC[C@H](C/C=C\CCCCCCCC(CCCCCCC/C=C\C[C@@H](CCCCCC)OC(C)=O)OC(=O)OCCCN(C)C)OC(C)=O [Example 23, (7R,9Z,26Z,29R)-18-({[3-(Dimethylamino)propoxy]carbonyl}oxy)pentatriaconta-9,26-diene-7,29-diyl Diacetate] | – | – | – | 219 ± 49 nm | 99% | 0.076 wt/wt | – | strong FVII inhibitory activity | 21% | 32%
2 | CCCCC/C=C\C/C=C\CCCCCCCCC(COCCCCCCCC/C=C\C[C@@H](CCCCCC)OC(C)=O)OC(=O)OCCCN(C)C (stereo partly drawn) [Example 54, (20,23R)-2-Methyl-9-[(9Z,12Z)-octadeca-9,12-dien-1-yl]-7-oxo-6,8,11-trioxa-2-azanonacos-20-en-23-yl Acetate] | 127 ± 29 nm | 98% | 0.078 wt/wt | – | – | – | strong PLK-1 expression inhibitory activity | – | – | –

Continued, in another order:

Row | Average particle size [1, 6] | Rate of polynucleotide encapsulation [2, 6] | Ratio of polynucleotide to lipid siRNA/lipid [3, 6] | Average particle size [1, 7] | Rate of polynucleotide encapsulation [2, 7] | Ratio of polynucleotide to lipid siRNA/lipid [3, 7] | Structure (SMILES) | PLK-1 expression inhibitory activity in tumor (in words, FIG. 5) [4] | FVII inhibitory activity (in words) [5] | Relative amount of FVII, 1 day later [5] | Relative amount of FVII, 6 days later [5]
3 | 103 ± 16 nm | 97% | 0.095 wt/wt | – | – | – | CCCCCCCCCCCCCCCCCC(CCCCCCCCCC)OC(=O)OCCCN(C)C (stereo not drawn) [Example 19, 3-(Dimethylamino)propyloctacosan-11-yl Carbonate] | strong PLK-1 expression inhibitory activity | – | – | –
4 | – | – | – | 177 ± 36 nm | 97% | 0.083 wt/wt | CCCCCCCCCCC(CCCCCCC/C=C\C[C@@H](CCCCCC)OC(C)=O)OC(=O)OCCCN(C)C (stereo partly drawn) [Example 28, (7R,9Z)-18-({[3-(Dimethylamino)propyloxy]carbonyl}oxy)octacos-9-en-7-yl Acetate] | – | strong FVII inhibitory activity | 45% | 57%
5 | 100 ± 27 nm | 96% | 0.093 wt/wt | – | – | – | CCCCCCCCCCCCCCCCCCCC(CCCCCCCCCC)OC(=O)OCCCN(C)C (stereo not drawn) [Example 45, 3-(Dimethylamino)propyl triacontan-11-yl Carbonate] | strong PLK-1 expression inhibitory activity | – | – | –

Reference: patent US10731159B2, “Cationic lipid” (DAIICHI SANKYO COMPANY, LIMITED, priority 2013, dated 2020)
